Results: patent US20100298141A1, “SUBSTITUTED PYRIDINE N-OXIDE HERBICIDES” (E. I. DU PONT DE NEMOURS AND COMPANY, priority 2007, published 2010)

How the values were obtained:
[1] = system: field bindweed; assay: Test F preemergence test; type: in vivo, Convolvulus arvensis; conditions: scale 0 to 100
Summary of the method: (§1)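 Greenhouse screen: test chemical in surfactant-containing non-phytotoxic solvent applied preemergence to sown seeds or postemergence to sugarcane plants; after 14 to 21 days each species scored visually versus controls.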

[2] = system: johnsongrass; assay: Test F preemergence test; type: in vivo, Sorghum halepense; conditions: scale 0 to 100
Summary of the method: as §1

[3] = system: naked crabgrass; assay: Test F preemergence test; type: in vivo, Digitaria nuda; conditions: scale 0 to 100
Summary of the method: as §1

[4] = system: pitted morningglory; assay: Test F preemergence test; type: in vivo, Ipomoea lacunosa; conditions: scale 0 to 100
Summary of the method: as §1

[5] = system: chickweed; assay: Test C postemergence test; type: in vivo, Stellaria media; conditions: for Plant response rating, Chickweed: scale 0 to 100, 0 no effect, 100 complete control
Summary of the method: (§2)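 Postemergence sprays of formulated test chemicals on plants 2 to 18 cm tall (1- to 4-leaf stage). Greenhouse hold for 13 to 15 days, then visual rating of each species against untreated controls; dash means no test result.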

[6] = system: green foxtail; assay: Test F preemergence test; type: in vivo, Setaria viridis; conditions: scale 0 to 100
Summary of the method: as §1

[7] = system: winter barley; assay: Test C postemergence test; type: in vivo, Hordeum vulgare; conditions: for Plant response rating, Barley: scale 0 to 100, 0 no effect, 100 complete control
Summary of the method: as §2

[8] = system: common groundsel; assay: Test F preemergence test; type: in vivo, Senecio vulgaris; conditions: scale 0 to 100
Summary of the method: as §1

[9] = system: dallisgrass; assay: Test F preemergence test; type: in vivo, Paspalum dilatatum; conditions: scale 0 to 100
Summary of the method: as §1

[10] = system: guineagrass; assay: Test F preemergence test; type: in vivo, Panicum maximum; conditions: scale 0 to 100
Summary of the method: as §1

[11] = system: common purslane; assay: Test F preemergence test; type: in vivo, Portulaca oleracea; conditions: scale 0 to 100
Summary of the method: as §1

[12] = system: annual bluegrass; assay: Test F preemergence test; type: in vivo, Poa annua; conditions: scale 0 to 100
Summary of the method: as §1

[13] = system: common mallow; assay: Test F preemergence test; type: in vivo, Malva sylvestris; conditions: scale 0 to 100
Summary of the method: as §1

[14] = system: Russian thistle; assay: Test F preemergence test; type: in vivo, Salsola kali; conditions: scale 0 to 100
Summary of the method: as §1

[15] = system: prickly sida; assay: Test F preemergence test; type: in vivo, Sida spinosa; conditions: scale 0 to 100
Summary of the method: as §1

[16] = system: itchgrass; assay: Test F preemergence test; type: in vivo, Rottboellia cochinchinensis; conditions: scale 0 to 100
Summary of the method: as §1

[17] = system: common sowthistle; assay: Test F preemergence test; type: in vivo, Sonchus oleraceous; conditions: scale 0 to 100
Summary of the method: as §1

[18] = system: Virginia dayflower; assay: Test F preemergence test; type: in vivo, Commelina virginica; conditions: scale 0 to 100
Summary of the method: as §1

Cn1nc(C(F)(F)F)c(C[S+]([O-])c2ccc(Cl)c[n+]2[O-])c1OC(F)F (centres unmarked) [Compound 6]
Plant response rating, Field Bindweed ([1]; 8 g ai/ha, preemergence): 0 | Field Bindweed plant response rating ([1]; 62 g ai/ha, Preemergence): 50 | Plant response rating, Field Bindweed ([1]; Preemergence, 16 g ai/ha): 50 | Plant response rating, Field Bindweed ([1]; Preemergence, 31 g ai/ha): 50 | Plant response rating, Johnsongrass ([2]; 8 g ai/ha, preemergence): 75 | Johnsongrass plant response rating ([2]; 62 g ai/ha, Preemergence): 95 | Plant response rating, Johnsongrass ([2]; Preemergence, 16 g ai/ha): 75 | Plant response rating, Johnsongrass ([2]; Preemergence, 31 g ai/ha): 95 | Plant response rating, Crabgrass, Naked ([3]; 8 g ai/ha, preemergence): 0 | Crabgrass, Naked plant response rating ([3]; 62 g ai/ha, Preemergence): 100 | Plant response rating, Crabgrass, Naked ([3]; Preemergence, 16 g ai/ha): 65 | Plant response rating, Crabgrass, Naked ([3]; Preemergence, 31 g ai/ha): 80 | Plant response rating, Morningglory ([4]; 8 g ai/ha, preemergence): 0 | Morningglory plant response rating ([4]; 62 g ai/ha, Preemergence): 75 | Plant response rating, Morningglory ([4]; Preemergence, 16 g ai/ha): 0 | Plant response rating, Morningglory ([4]; Preemergence, 31 g ai/ha): 75 | Plant response rating (0 to 100), Chickweed ([5]; 31 g ai/ha): 0 | Plant response rating, Chickweed ([5]; 62 g ai/ha): 40 | Plant response rating, Chickweed ([5]; 125 g ai/ha): 85 | Plant response rating, Chickweed ([5]; 250 g ai/ha): 95 | Plant response rating, Foxtail, Green ([6]; 8 g ai/ha, preemergence): 0 | Foxtail, Green plant response rating ([6]; 62 g ai/ha, Preemergence): 85 | Plant response rating, Foxtail, Green ([6]; Preemergence, 16 g ai/ha): 65 | Plant response rating, Foxtail, Green ([6]; Preemergence, 31 g ai/ha): 80 | Plant response rating (0 to 100), Barley ([7]; 31 g ai/ha): 0 | Plant response rating, Barley ([7]; 62 g ai/ha): 0 | Plant response rating, Barley ([7]; 125 g ai/ha): 0 | Plant response rating, Barley ([7]; 250 g ai/ha): 0 | Plant response rating, Groundsel ([8]; 8 g ai/ha, preemergence): 0 | Groundsel plant response rating ([8]; 62 g ai/ha, Preemergence): 75 | Plant response rating, Groundsel ([8]; Preemergence, 16 g ai/ha): 50 | Plant response rating, Groundsel ([8]; Preemergence, 31 g ai/ha): 75 | Plant response rating, Dallisgrass ([9]; 8 g ai/ha, preemergence): 0 | Dallisgrass plant response rating ([9]; 62 g ai/ha, Preemergence): 70 | Plant response rating, Dallisgrass ([9]; Preemergence, 16 g ai/ha): 20 | Plant response rating, Dallisgrass ([9]; Preemergence, 31 g ai/ha): 50 | Plant response rating, Guineagrass ([10]; 8 g ai/ha, preemergence): 100 | Guineagrass plant response rating ([10]; 62 g ai/ha, Preemergence): 100 | Plant response rating, Guineagrass ([10]; Preemergence, 16 g ai/ha): 100 | Plant response rating, Guineagrass ([10]; Preemergence, 31 g ai/ha): 100 | Plant response rating, Purslane ([11]; 8 g ai/ha, preemergence): 10 | Purslane plant response rating ([11]; 62 g ai/ha, Preemergence): 70 | Plant response rating, Purslane ([11]; Preemergence, 16 g ai/ha): 20 | Plant response rating, Purslane ([11]; Preemergence, 31 g ai/ha): 50 | Plant response rating, Bluegrass ([12]; 8 g ai/ha, preemergence): 0 | Bluegrass plant response rating ([12]; 62 g ai/ha, Preemergence): 90 | Plant response rating, Bluegrass ([12]; Preemergence, 16 g ai/ha): 10 | Plant response rating, Bluegrass ([12]; Preemergence, 31 g ai/ha): 75 | Plant response rating, Mallow ([13]; 8 g ai/ha, preemergence): 0 | Mallow plant response rating ([13]; 62 g ai/ha, Preemergence): 90 | Plant response rating, Mallow ([13]; Preemergence, 16 g ai/ha): 0 | Plant response rating, Mallow ([13]; Preemergence, 31 g ai/ha): 30 | Plant response rating, Russian Thistle ([14]; 8 g ai/ha, preemergence): 0 | Plant response rating, Russian Thistle ([14]; Preemergence, 16 g ai/ha): 0 | Plant response rating, Russian Thistle ([14]; Preemergence, 31 g ai/ha): 0 | Plant response rating, Prickly Sida ([15]; 8 g ai/ha, preemergence): 0 | Prickly Sida plant response rating ([15]; 62 g ai/ha, Preemergence): 100 | Plant response rating, Prickly Sida ([15]; Preemergence, 16 g ai/ha): 0 | Plant response rating, Prickly Sida ([15]; Preemergence, 31 g ai/ha): 80 | Plant response rating, Itchgrass ([16]; 8 g ai/ha, preemergence): 0 | Itchgrass plant response rating ([16]; 62 g ai/ha, Preemergence): 95 | Plant response rating, Itchgrass ([16]; Preemergence, 16 g ai/ha): 60 | Plant response rating, Itchgrass ([16]; Preemergence, 31 g ai/ha): 75 | Plant response rating, Sowthistle ([17]; 8 g ai/ha, preemergence): 0 | Plant response rating, Sowthistle ([17]; 16 g ai/ha, preemergence): 0 | Sowthistle plant response rating ([17]; 62 g ai/ha, Preemergence): 90 | Plant response rating, Sowthistle ([17]; Preemergence, 31 g ai/ha): 50 | Plant response rating, Dayflower ([18]; 8 g ai/ha, preemergence): 0 | Dayflower plant response rating ([18]; 62 g ai/ha, Preemergence): 100 | Plant response rating, Dayflower ([18]; Preemergence, 16 g ai/ha): 90 | Plant response rating, Dayflower ([18]; Preemergence, 31 g ai/ha): 90
